Measured values published in US8946413B2 (Pfizer Inc., priority 2008, dated 2015).

target: T1, CCR2 (Homo sapiens, UniProt P41597); assay: hCCR2 (125-I hMCP-1) small molecule binding assay on human PBMCs; settings: 300 nM, 1 hr preincubation, human PBMCs; read-out: % @300 nM (printed in column IC50 1 hr preinc)
T1 construct: (leukophoresis pack); host or cells: human peripheral blood mononuclear cells (PBMCs) from a normal human leukophoresis pack
Outline: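 Ficoll-isolated human PBMCs pre-incubated 30 min or 1 h with compound at 0.333 μM final (0.67% DMSO), then incubated 30 min at room temperature with 150 pM 125I-hMCP-1 in RPMI/0.1% BSA/20 mM HEPES. Filter-bound radioactivity counted by gamma counter. 100% inhibition defined with 1 μM hMCP-1; IC50 plates run n=2.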

T1 sequence (P41597 whole entry): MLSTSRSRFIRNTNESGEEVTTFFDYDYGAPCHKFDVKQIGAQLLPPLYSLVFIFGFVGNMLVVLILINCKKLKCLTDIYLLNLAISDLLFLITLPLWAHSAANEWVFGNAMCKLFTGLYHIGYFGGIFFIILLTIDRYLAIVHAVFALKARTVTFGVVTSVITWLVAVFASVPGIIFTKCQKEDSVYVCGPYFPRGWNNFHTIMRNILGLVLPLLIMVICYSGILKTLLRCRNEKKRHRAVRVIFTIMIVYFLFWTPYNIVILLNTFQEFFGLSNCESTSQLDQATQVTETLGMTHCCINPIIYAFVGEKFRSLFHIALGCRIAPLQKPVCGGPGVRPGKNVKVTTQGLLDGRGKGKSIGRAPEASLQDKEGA

| inhibition at 0.3 µM | Structure (SMILES) |
| --- | --- |
| 1.5% | CO[C@@H]1COCC[C@@H]1N[C@@H]1CC[C@H](C(=O)N2C[C@@H]3C[C@H]2CN3c2cc(C(F)(F)F)ccn2)C1 [Example 65, ((1S,3R)-3-((3S,4S)-3-methoxy-tetrahydro-2H-pyran-4-ylamino)cyclopentyl)((1S,4S)-5-(4-(trifluoromethyl)pyridin-2-yl)-2,5-diaza-bicyclo[2.2.1]heptan-2-yl)methanone] |

same assay, conditions: 125I-MCP-1, human PBMCs, 30 min preincubation; read-out: IC50 (nM) 30 min preinc

| Structure (SMILES) | IC50 |
| --- | --- |
| CO[C@@H]1COCC[C@@H]1N[C@@H]1CC[C@@](C(=O)N2C[C@@H]3C[C@H]2CN3c2ccnc(C(F)(F)F)n2)(C2(O)CCC2)C1 [Example 48, 1,5-anhydro-2,3-dideoxy-3-{[(1R,3S)-3-(1-hydroxycyclobutyl)-3-({(1S,4S)-5-[2-(trifluoromethyl)pyrimidin-4-yl]-2,5-diazabicyclo[2.2.1]hept-2-yl}carbonyl)cyclopentyl]amino}-4-O-methyl-D-erythro-pentitol] | 25.3 nM |
| CO[C@@H]1COCC[C@@H]1N[C@@H]1CC[C@@](C(=O)N2C[C@@H]3C[C@H]2CN3c2cc(C(F)(F)F)ncn2)(C2(O)CCC2)C1 [Example 49, 1,5-anhydro-2,3-dideoxy-3-{[(1R,3S)-3-(1-hydroxycyclobutyl)-3-({(1S,4S)-5-[6-(trifluoromethyl)pyrimidin-4-yl]-2,5-diazabicyclo[2.2.1]hept-2-yl}carbonyl)cyclopentyl]amino}-4-O-methyl-D-erythro-pentitol] | 35.8 nM |
| CO[C@@H]1COCC[C@@H]1N[C@@H]1CC[C@@](C(=O)N2C[C@@H]3C[C@H]2CN3c2ccnc(C(F)(F)F)c2)(C2(O)CCC2)C1 [Example 51, 1,5-anhydro-2,3-dideoxy-3-{[(1R,3S)-3-(1-hydroxycyclobutyl)-3-({(1S,4S)-5-[2-(trifluoromethyl)pyridin-4-yl]-2,5-diazabicyclo[2.2.1]hept-2-yl}carbonyl)cyclopentyl]amino}-4-O-methyl-D-erythro-pentitol] | 22.8 nM |
| CO[C@@H]1COCC[C@@H]1N[C@@H]1CC[C@@](C(=O)N2C[C@@H]3C[C@H]2CN3c2cc(C(F)(F)F)ncn2)(C(C)(C)O)C1 [Example 53, 1,5-anhydro-2,3-dideoxy-3-{[3-(1-hydroxy-1-methylethyl)-3-({5-[6-(trifluoromethyl)pyrimidin-4-yl]-2,5-diazabicyclo[2.2.1]hept-2-yl}carbonyl)cyclopentyl]amino}-4-O-methylpentitol] | 27.6 nM |
| CO[C@@H]1COCC[C@@H]1N[C@@H]1CC[C@@](C(=O)N2C[C@@H]3C[C@H]2CN3c2cc(C(F)(F)F)cnn2)(C(C)(C)O)C1 [Example 55, 1,5-anhydro-2,3-dideoxy-3-{[3-(1-hydroxy-1-methylethyl)-3-({5-[5-(trifluoromethyl)pyridazin-3-yl]-2,5-diazabicyclo[2.2.1]hept-2-yl}carbonyl)cyclopentyl]amino}-4-O-methylpentitol] | 28.3 nM |
| CO[C@@H]1COCC[C@@H]1N[C@@H]1CC[C@@](C(=O)N2C[C@@H]3C[C@H]2CN3c2ccnc(C(F)(F)F)n2)(C(C)(C)O)C1 [Example 56, 1,5-anhydro-2,3-dideoxy-3-{[3-(1-hydroxy-1-methylethyl)-3-({5-[2-(trifluoromethyl)pyrimidin-4-yl]-2,5-diazabicyclo[2.2.1]hept-2-yl}carbonyl)cyclopentyl]amino}-4-O-methylpentitol] | 32.8 nM |
| CO[C@@H]1COCC[C@@H]1N[C@@H]1CC[C@@](C(=O)N2C[C@@H]3C[C@H]2CN3c2ccnc(C(F)(F)F)c2)(C(C)(C)O)C1 [Example 58, 1,5-anhydro-2,3-dideoxy-3-{[3-(1-hydroxy-1-methylethyl)-3-({5-[2-(trifluoromethyl)pyridin-4-yl]-2,5-diazabicyclo[2.2.1]hept-2-yl}carbonyl)cyclopentyl]amino}-4-O-methylpentitol] | 38.5 nM |
| CO[C@@H]1COCC[C@@H]1N[C@@H]1CC[C@@](C(=O)N2C[C@@H]3C[C@H]2CN3c2cncc(C(F)(F)F)n2)(C(C)(C)O)C1 [Example 59, 1,5-anhydro-2,3-dideoxy-3-{[3-(1-hydroxy-1-methylethyl)-3-({5-[6-(trifluoromethyl)pyrazin-2-yl]-2,5-diazabicyclo[2.2.1]hept-2-yl}carbonyl)cyclopentyl]amino}-4-O-methylpentitol] | 17.7 nM |
| CO[C@@H]1COCC[C@@H]1N[C@@H]1CC[C@@](C(=O)N2C[C@@H]3C(O)[C@H]2CN3C(=O)OC(C)(C)C)(C(C)C)C1 (stereo partly drawn) [Example 70, (1R,4R,7S)-tert-butyl 7-hydroxy-5-((1S)-1-isopropyl-3-(3-methoxy-tetrahydro-2H-pryan-4-ylamino)cyclopentanecarbonyl)-2,5-diaza-bicyclo[2.2.1]heptane-2-carboxylate] | 8.7 nM |

Results, then the compound that gave them:

| IC50 | Structure (SMILES) |
| --- | --- |
| 7.14 nM | CO[C@@H]1COCC[C@@H]1N[C@@H]1CC[C@@](C(=O)N2C[C@@H]3C[C@H]2CN3c2cncc(C(F)(F)F)n2)(C2(O)CCC2)C1 [Example 50, 1,5-anhydro-2,3-dideoxy-3-{[(1R,3S)-3-(1-hydroxycyclobutyl)-3-({(1S,4S)-5-[6-(trifluoromethyl)pyrazin-2-yl]-2,5-diazabicyclo[2.2.1]hept-2-yl}carbonyl)cyclopentyl]amino}-4-O-methyl-D-erythro-pentitol] |
| 5.4 nM | CO[C@@H]1COCC[C@@H]1N[C@@H]1CC[C@@](C(=O)N2C[C@@H]3C[C@H]2CN3c2cc(C(F)(F)F)ccn2)(C(C)(C)O)C1 [Example 52, 1,5-anhydro-2,3-dideoxy-3-{[3-(1-hydroxy-1-methylethyl)-3-({5-[4-(trifluoromethyl)pyridin-2-yl]-2,5-diazabicyclo[2.2.1]hept-2-yl}carbonyl)cyclopentyl]amino}-4-O-methylpentitol] |
| 8.46 nM | CO[C@@H]1COCC[C@@H]1N[C@@H]1CC[C@@](C(=O)N2C[C@@H]3C[C@H]2CN3c2nccc(C(F)(F)F)n2)(C(C)(C)O)C1 [Example 54] |
| 4.34 nM | CO[C@@H]1COCC[C@@H]1N[C@@H]1CC[C@@](C(=O)N2C[C@@H]3C[C@H]2CN3c2cccc(C(F)(F)F)n2)(C(C)(C)O)C1 [Example 57, 1,5-anhydro-2,3-dideoxy-3-{[3-(1-hydroxy-1-methylethyl)-3-({5-[6-(trifluoromethyl)pyridin-2-yl]-2,5-diazabicyclo[2.2.1]hept-2-yl}carbonyl)cyclopentyl]amino}-4-O-methylpentitol] |
| 2.4 nM | CO[C@@H]1COCC[C@@H]1N[C@@H]1CC[C@@](C(=O)N2C[C@@H]3C[C@H]2CN3c2cc(C(F)(F)F)ccn2)(C2CCOC2)C1 (stereo partly drawn) [Example 60, ((1S,3R)-3-((3S,4S)-3-methoxy-tetrahydro-2H-pyran-4-ylamino)-1-(tetrahydrofuran-3-yl)cyclopentyl)((1S,4S)-5-(4-(trifluoromethyl)pyridin-2-yl)-2,5-diaza-bicyclo[2.2.1]heptan-2-yl)methanone] |
| 5.9 nM | CO[C@@H]1COCC[C@@H]1N[C@@H]1CC[C@@](C(=O)N2C[C@@H]3C[C@H]2CN3c2cc(C(F)(F)F)ccn2)(C2CCOC2)C1 (stereo partly drawn) [Example 61, ((1S,3R)-3-((3S,4S)-3-methoxy-tetrahydro-2H-pyran-4-ylamino)-1-(tetrahydrofuran-3-yl)cyclopentyl)((1S,4S)-5-(4-(trifluoromethyl)pyridin-2-yl)-2,5-diaza-bicyclo[2.2.1]heptan-2-yl)methanone] |
| 1.3 nM | CO[C@@H]1COCC[C@@H]1N[C@@H]1CC[C@@](C(=O)N2C[C@@H]3C[C@H]2CN3c2cc(C(F)(F)F)ccn2)(C(O)C(F)(F)F)C1 (stereo partly drawn) [Example 62, ((1S,3R)-3-((3S,4S)-3-methoxy-tetrahydro-2H-pyran-4-ylamino)-1-(2,2,2-trifluoro-1-hydroxyethyl)cyclopentyl)((1S,4S)-5-(4-(trifluoromethyl)pyridin-2-yl)-2,5-diaza-bicyclo[2.2.1]heptan-2-yl)methanone] |
| 1.7 nM | CO[C@@H]1COCC[C@@H]1N[C@@H]1CC[C@@](C(=O)N2C[C@@H]3C[C@H]2CN3c2cc(F)cc(C(F)(F)F)c2)(C2CCOC2)C1 (stereo partly shown) [Example 66] |
| 3.4 nM | CO[C@@H]1COCC[C@@H]1N[C@@H]1CC[C@@](C(=O)N2C[C@@H]3[C@H](F)[C@H]2CN3c2cc(C(F)(F)F)ccn2)(C(C)C)C1 [Example 67, ((1R,4R,7S)-7-(fluoro)-5-(4-(trifluoromethyl)pyridin-2-yl)-2,5-diaza-bicyclo[2.2.1]heptan-2-yl)((1S,3R)-1-isopropyl-3-((3S,4S)-3-methoxy-tetrahydro-2H-pyran-4-ylamino)cyclopentyl)methanone] |
| 5.4 nM | CO[C@@H]1COCC[C@@H]1N[C@@H]1CC[C@@](C(=O)N2C[C@@H]3[C@H](O)[C@H]2CN3c2cc(C(F)(F)F)ccn2)(C(C)C)C1 [Example 68, ((1R,4R,7S)-7-hydroxy-5-(4-(trifluoromethyl)pyridin-2-yl)-2,5-diaza-bicyclo[2.2.1]heptan-2-yl)((1S,3R)-1-isopropyl-3-((3S,4S)-3-methoxy-tetrahydro-2H-pyran-4-ylamino)cyclopentyl)methanone] |
| 4.3 nM | CO[C@@H]1COCC[C@@H]1N[C@@H]1CC[C@@](C(=O)N2C[C@@H]3C(F)[C@H]2CN3c2cc(C(F)(F)F)ccn2)(C(C)C)C1 (stereo partly drawn) [Example 69, ((1R,4R)-7-fluoro-5-(4-(trifluoromethyl)pyridin-2-yl)-2,5-diaza-bicyclo[2.2.1]heptan-2-yl)((1S,3R)-1-isopropyl-3-((3S,4S)-3-methoxy-tetrahydro-2H-pyran-4-ylamino)cyclopentyl)methanone] |

same assay, conditions: 125I-MCP-1, human PBMCs, 1 hr preincubation; read-out: IC50 (nM) 1 hr preinc

| IC50 | Structure (SMILES) |
| --- | --- |
| 1.1 nM | CO[C@@H]1COCC[C@@H]1N[C@@H]1CC[C@@](C(=O)N2C[C@@H]3C[C@H]2CN3c2cc(C(F)(F)F)ccn2)(C(O)C(F)(F)F)C1 (stereo partly drawn) [Example 63, ((1S,3R)-3-((3S,4S)-3-methoxy-tetrahydro-2H-pyran-4-ylamino)-1-(2,2,2-trifluoro-1-hydroxyethyl)cyclopentyl)((1S,4S)-5-(4-(trifluoromethyl)pyridin-2-yl)-2,5-diaza-bicyclo[2.2.1]heptan-2-yl)methanone] |
